According to ChEMBL document CHEMBL3576861, “Methyl 3-((6-methoxy-1,4-dihydroindeno[1,2-c]pyrazol-3-yl)amino)benzoate (GN39482) as a tubulin polymerization inhibitor identified by MorphoBase and ChemProteoBase profiling methods” (J Med Chem, 2015):
Active and inactive are the calls of the source. No cut-off for these calls is given here.

Columns and labels:
HeLa [1] = experiment: Antiproliferative activity against human HeLa cells assessed as inhibition of cell viability after 72 hrs by MTT assay; assay type: functional, cell-based
PC-3 = experiment: Antiproliferative activity against human PC3 cells assessed as inhibition of cell viability after 72 hrs by MTT assay; assay type: functional, cell-based; details: PC-3, 72 h
HCT-116 = experiment: Antiproliferative activity against human HCT116 cells assessed as inhibition of cell viability after 72 hrs by MTT assay; assay type: functional, cell-based; details: HCT-116, 72 h
HEK293 = experiment: Antiproliferative activity against HEK293 cells assessed as inhibition of cell viability after 72 hrs by MTT assay; assay type: cell-based; details: Homo sapiens, HEK293, 72 h
HeLa [2] = experiment: Cell cycle arrest in human HeLa cells assessed as accumulation at G2/M phase at 0.3 to 30 nM after 24 hrs by propidium iodide staining based flow cytometry; assay type: functional
HeLa [3] = experiment: Cell cycle arrest in human HeLa cells assessed as accumulation at G2/M phase at 3 to 30 uM after 24 hrs by propidium iodide staining based flow cytometry; assay type: functional
Tubulin (Homo sapiens) [4] = biological target: T1, Tubulin (Homo sapiens) (UniProt P68371+Q9H4B7+P0DPH7+P68366+Q13509+Q71U36+P04350+Q3ZCM7+P07437+P68363+Q9BQE3+Q6PEY2+Q13885+Q9BVA1+Q9BUF5); experiment: Inhibition of tubulin polymerization in human HeLa cells assessed as reduction of microtubule formation at 100 nM after 6 hrs by DAPI staining-based immunofluorescence assay; assay type: cell-based
Tubulin (Homo sapiens) [5] = biological target: T1, Tubulin (Homo sapiens); experiment: Inhibition of acetylated tubulin accumulation in human HeLa cells at 300 nM after 6 hrs by Western blot analysis; assay type: cell-based
Tubulin (Homo sapiens) [6] = biological target: T1, Tubulin (Homo sapiens); experiment: Inhibition of tubulin polymerization in human HeLa cells assessed as reduction of microtubule formation at 300 nM after 6 hrs by DAPI staining-based immunofluorescence assay; assay type: cell-based
Tubulin (Homo sapiens) [7] = biological target: T1, Tubulin (Homo sapiens); experiment: Inhibition of acetylated tubulin accumulation in human HeLa cells at 1000 nM after 6 hrs by Western blot analysis; assay type: cell-based
Tubulin (Homo sapiens) [8] = biological target: T1, Tubulin (Homo sapiens); experiment: Inhibition of tubulin polymerization in human HeLa cells assessed as reduction of microtubule formation at 1000 nM after 6 hrs by DAPI staining-based immunofluorescence assay; assay type: cell-based
Staphylococcus aureus = experiment: Antimicrobial activity against Staphylococcus aureus 209 at 100 nM after 24 hrs by standard microdilution method; assay type: functional, organism-based
Escherichia coli = experiment: Antimicrobial activity against Escherichia coli HO141 at 100 nM after 24 hrs by standard microdilution method; assay type: functional, organism-based
Candida albicans = experiment: Antimicrobial activity against Candida albicans JCM1542 at 100 nM after 24 hrs by standard microdilution method; assay type: functional, organism-based
Aspergillus fumigatus = experiment: Antimicrobial activity against Aspergillus fumigatus Af293 at 100 nM after 48 hrs by standard microdilution method; assay type: functional
Pyricularia oryzae = experiment: Antimicrobial activity against Magnaporthe oryzae Kita-1 at 100 nM after 48 hrs by standard microdilution method; assay type: functional, organism-based
Plasmodium falciparum = experiment: Antimalarial activity against Plasmodium falciparum 3D7 infected in human erythrocytes assessed as LDH activity at 100 nM after 72 hrs by plate reader analysis; assay type: functional, organism-based
[9] = biological target: Vascular endothelial growth factor receptor 2 (Homo sapiens) (UniProt P35968); experiment: Inhibition of N-terminal GST fusion protein human KDR cytoplasmic domain expressed in baculovirus using CSKtide as substrate at 10 uM after 1 hr by off-chip Mobility Shift Assay
Chain of Vascular endothelial growth factor receptor 2 (Homo sapiens) (P35968 whole entry, the tested form may be a part): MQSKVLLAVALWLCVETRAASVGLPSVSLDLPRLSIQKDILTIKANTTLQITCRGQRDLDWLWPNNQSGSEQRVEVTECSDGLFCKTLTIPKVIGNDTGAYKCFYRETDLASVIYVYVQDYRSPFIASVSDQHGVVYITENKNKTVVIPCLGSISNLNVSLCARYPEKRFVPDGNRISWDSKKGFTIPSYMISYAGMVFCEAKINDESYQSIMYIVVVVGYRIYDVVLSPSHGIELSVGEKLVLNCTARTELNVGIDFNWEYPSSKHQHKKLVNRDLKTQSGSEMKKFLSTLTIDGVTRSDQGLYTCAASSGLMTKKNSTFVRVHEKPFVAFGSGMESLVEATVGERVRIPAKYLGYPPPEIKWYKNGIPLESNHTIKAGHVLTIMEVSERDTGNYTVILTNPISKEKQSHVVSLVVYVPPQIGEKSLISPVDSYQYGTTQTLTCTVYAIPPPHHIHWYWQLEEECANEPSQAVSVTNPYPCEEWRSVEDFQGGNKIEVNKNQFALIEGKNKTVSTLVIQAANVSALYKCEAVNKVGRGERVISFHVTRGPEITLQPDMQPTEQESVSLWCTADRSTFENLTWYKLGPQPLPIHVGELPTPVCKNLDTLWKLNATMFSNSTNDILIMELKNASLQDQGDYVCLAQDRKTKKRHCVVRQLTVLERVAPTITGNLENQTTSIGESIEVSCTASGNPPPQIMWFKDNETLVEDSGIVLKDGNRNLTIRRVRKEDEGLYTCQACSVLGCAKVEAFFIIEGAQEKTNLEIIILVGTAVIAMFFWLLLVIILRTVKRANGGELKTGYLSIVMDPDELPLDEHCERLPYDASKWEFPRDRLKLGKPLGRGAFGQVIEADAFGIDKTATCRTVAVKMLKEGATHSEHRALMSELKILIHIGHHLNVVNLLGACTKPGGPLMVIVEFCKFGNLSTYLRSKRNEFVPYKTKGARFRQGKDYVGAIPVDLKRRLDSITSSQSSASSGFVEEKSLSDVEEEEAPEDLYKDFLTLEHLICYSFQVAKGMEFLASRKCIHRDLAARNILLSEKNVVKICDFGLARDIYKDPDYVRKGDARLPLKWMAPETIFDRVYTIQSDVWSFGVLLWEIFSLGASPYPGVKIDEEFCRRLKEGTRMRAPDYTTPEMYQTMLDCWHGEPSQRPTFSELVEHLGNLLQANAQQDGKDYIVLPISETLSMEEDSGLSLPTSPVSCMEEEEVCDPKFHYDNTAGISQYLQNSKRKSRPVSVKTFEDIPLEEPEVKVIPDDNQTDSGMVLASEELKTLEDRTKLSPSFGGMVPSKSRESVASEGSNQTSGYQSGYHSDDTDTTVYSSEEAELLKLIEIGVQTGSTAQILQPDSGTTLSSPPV

[10] = biological target: Platelet-derived growth factor receptor beta (Homo sapiens) (UniProt P09619); experiment: Inhibition of N-terminal GST fusion protein human PDGFR-beta cytoplasmic domain expressed in baculovirus using CSKtide as substrate at 10 uM after 1 hr by off-chip Mobility Shift Assay
Chain of Platelet-derived growth factor receptor beta (Homo sapiens) (P09619 whole entry, the tested form may be a part): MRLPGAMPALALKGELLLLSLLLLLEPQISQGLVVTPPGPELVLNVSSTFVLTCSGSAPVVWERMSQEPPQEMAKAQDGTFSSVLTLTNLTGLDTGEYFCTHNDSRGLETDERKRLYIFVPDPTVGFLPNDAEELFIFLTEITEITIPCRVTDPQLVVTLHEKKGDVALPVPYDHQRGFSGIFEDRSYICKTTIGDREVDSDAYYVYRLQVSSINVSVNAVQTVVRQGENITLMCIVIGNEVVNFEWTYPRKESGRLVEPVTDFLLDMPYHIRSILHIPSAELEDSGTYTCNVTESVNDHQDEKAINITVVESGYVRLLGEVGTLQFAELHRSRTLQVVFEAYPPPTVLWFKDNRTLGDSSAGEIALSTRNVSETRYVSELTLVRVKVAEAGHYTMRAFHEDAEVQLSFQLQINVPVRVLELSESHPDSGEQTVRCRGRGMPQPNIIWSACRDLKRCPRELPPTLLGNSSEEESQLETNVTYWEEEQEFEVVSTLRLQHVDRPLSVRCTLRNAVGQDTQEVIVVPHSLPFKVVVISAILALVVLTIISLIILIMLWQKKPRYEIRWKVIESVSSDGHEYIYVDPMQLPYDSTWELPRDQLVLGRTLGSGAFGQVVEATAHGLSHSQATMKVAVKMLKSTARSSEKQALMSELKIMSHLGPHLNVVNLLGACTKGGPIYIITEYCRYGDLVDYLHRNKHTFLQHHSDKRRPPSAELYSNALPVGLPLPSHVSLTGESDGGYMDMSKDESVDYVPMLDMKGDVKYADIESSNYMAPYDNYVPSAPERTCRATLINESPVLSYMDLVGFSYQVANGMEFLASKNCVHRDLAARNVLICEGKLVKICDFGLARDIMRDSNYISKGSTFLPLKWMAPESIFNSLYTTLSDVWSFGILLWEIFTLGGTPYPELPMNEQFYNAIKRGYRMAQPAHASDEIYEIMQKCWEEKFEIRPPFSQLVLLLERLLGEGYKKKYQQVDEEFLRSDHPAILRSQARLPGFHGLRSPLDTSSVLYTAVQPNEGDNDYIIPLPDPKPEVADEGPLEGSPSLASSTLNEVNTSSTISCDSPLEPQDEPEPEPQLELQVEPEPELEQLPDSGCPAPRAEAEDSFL

[11] = biological target: T2, Cyclin-dependent kinase 2/cyclin E1 (Homo sapiens) (UniProt P24864+P24941); experiment: Inhibition of N-terminal GST-tagged human full length CDK2/Cyclin E1 expressed in baculovirus using histone H1 as substrate at 10 uM after 1 hr by off-chip Mobility Shift Assay
[12] = biological target: Epidermal growth factor receptor (Homo sapiens) (UniProt P00533); experiment: Inhibition of N-terminal GST fusion protein human EGFR cytoplasmic domain expressed in baculovirus using Srctide as substrate at 0.1 uM after 1 hr by off-chip Mobility Shift Assay
Chain of Epidermal growth factor receptor (Homo sapiens) (P00533 whole entry, the tested form may be a part): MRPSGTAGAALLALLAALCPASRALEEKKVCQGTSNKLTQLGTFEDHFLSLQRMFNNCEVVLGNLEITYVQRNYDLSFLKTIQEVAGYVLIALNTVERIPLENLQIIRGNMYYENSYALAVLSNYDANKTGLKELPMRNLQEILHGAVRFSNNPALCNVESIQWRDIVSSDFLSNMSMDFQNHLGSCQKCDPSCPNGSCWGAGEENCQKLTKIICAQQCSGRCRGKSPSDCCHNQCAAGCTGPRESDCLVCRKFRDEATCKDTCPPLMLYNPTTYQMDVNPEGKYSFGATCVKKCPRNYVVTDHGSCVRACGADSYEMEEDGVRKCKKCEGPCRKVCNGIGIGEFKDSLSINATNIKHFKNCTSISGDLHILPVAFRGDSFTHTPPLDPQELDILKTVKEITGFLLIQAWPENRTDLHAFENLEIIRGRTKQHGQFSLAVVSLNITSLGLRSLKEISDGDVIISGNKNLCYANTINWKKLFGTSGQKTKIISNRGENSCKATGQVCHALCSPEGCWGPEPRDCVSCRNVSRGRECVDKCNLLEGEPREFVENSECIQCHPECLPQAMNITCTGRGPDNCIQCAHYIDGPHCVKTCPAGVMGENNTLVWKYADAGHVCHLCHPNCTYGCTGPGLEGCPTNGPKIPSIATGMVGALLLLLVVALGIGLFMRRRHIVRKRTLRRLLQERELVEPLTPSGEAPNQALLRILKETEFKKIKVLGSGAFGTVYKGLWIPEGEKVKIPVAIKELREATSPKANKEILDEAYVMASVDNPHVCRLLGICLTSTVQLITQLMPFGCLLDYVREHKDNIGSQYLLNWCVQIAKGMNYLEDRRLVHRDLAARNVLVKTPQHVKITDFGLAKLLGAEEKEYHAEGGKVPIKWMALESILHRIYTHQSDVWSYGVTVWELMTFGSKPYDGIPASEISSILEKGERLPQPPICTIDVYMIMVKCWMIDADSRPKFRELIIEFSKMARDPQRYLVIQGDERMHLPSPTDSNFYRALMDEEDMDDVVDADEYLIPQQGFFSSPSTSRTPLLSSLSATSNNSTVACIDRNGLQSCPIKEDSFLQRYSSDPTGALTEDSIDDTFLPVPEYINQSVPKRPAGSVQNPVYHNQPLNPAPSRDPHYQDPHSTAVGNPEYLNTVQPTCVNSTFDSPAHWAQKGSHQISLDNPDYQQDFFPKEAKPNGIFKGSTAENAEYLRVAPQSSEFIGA

[13] = biological target: Vascular endothelial growth factor receptor 2 (Homo sapiens) (UniProt P35968); experiment: Inhibition of N-terminal GST fusion protein human KDR cytoplasmic domain expressed in baculovirus using CSKtide as substrate at 0.1 uM after 1 hr by off-chip Mobility Shift Assay
[14] = biological target: Platelet-derived growth factor receptor beta (Homo sapiens) (UniProt P09619); experiment: Inhibition of N-terminal GST fusion protein human PDGFR-beta cytoplasmic domain expressed in baculovirus using CSKtide as substrate at 0.1 uM after 1 hr by off-chip Mobility Shift Assay
[15] = biological target: T2, Cyclin-dependent kinase 2/cyclin E1 (Homo sapiens); experiment: Inhibition of N-terminal GST-tagged human full length CDK2/Cyclin E1 expressed in baculovirus using histone H1 as substrate at 0.1 uM after 1 hr by off-chip Mobility Shift Assay
[16] = biological target: CDK4/Cyclin D3 (Homo sapiens) (UniProt P11802+P30281); experiment: Inhibition of human full length N-terminal GST-fusion protein CDK4/GST-tagged Cyclin D3 expressed in baculovirus using DYRKtide-F as substrate at 0.1 uM after 1 hr by off-chip Mobility Shift Assay
[17] = biological target: T3, Serine/threonine-protein kinase Chk1 (Homo sapiens) (UniProt O14757); experiment: Inhibition of human full length N-terminal GST fusion protein CHK1 expressed in baculovirus using CHKtide as substrate at 0.1 uM after 1 hr by off-chip Mobility Shift Assay
T3 sequence (whole entry): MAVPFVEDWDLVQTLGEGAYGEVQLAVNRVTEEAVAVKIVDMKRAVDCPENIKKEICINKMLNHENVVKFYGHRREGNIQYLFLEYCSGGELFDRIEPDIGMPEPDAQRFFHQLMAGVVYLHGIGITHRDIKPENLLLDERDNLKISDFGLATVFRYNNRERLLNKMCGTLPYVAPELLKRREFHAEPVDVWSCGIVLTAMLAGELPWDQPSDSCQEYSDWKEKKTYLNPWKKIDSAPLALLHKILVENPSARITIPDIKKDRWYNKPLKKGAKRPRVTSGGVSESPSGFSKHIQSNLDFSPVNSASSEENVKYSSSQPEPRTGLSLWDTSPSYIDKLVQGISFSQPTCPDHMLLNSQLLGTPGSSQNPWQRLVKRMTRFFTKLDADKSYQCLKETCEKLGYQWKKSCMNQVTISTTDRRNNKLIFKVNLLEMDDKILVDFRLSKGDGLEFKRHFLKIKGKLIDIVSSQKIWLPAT

Tubulin (Sus scrofa) = Tubulin (Sus scrofa) (UniProt P02554+P02550); experiment: Inhibition of porcine tubulin polymerization measured every min for 1 hr by fluorescence analysis; assay type: protein assay
Chain of Tubulin (Sus scrofa) (P02550 whole entry, looked up): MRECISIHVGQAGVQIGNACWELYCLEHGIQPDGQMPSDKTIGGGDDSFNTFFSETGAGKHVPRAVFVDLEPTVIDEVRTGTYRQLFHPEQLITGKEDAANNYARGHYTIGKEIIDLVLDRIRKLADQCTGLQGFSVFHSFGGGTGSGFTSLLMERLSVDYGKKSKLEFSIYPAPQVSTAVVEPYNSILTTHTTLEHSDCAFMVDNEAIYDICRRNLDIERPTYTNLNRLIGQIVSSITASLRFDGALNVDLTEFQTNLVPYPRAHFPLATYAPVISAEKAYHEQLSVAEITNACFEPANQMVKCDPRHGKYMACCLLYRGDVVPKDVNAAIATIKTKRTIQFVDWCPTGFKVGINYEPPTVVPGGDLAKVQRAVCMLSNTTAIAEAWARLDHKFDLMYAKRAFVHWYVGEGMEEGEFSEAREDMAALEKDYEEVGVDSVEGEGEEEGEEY
Chain of Tubulin (Sus scrofa) (P02554 whole entry, looked up): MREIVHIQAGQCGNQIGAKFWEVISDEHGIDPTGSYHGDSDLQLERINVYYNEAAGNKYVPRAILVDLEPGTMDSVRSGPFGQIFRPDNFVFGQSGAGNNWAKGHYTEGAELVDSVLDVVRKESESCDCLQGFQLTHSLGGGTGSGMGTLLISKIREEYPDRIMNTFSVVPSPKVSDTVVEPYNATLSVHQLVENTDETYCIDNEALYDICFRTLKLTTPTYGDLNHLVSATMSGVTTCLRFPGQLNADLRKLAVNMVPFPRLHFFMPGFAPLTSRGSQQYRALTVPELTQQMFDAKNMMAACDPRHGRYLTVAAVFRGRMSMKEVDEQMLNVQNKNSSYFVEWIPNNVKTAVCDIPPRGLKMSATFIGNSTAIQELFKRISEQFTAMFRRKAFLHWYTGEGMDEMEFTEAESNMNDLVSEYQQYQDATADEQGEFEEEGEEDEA

Tubulin (Homo sapiens) [18] = biological target: T1, Tubulin (Homo sapiens); experiment: Inhibition of acetylated tubulin accumulation in human HeLa cells at 1 to 100 nM after 6 hrs by Western blot analysis; assay type: cell-based
Tubulin (Homo sapiens) [19] = biological target: T1, Tubulin (Homo sapiens); experiment: Inhibition of tubulin polymerization in human HeLa cells assessed as reduction of microtubule formation at 30 nM after 6 hrs by DAPI staining-based immunofluorescence assay; assay type: cell-based
HeLa [20] = experiment: Cell cycle arrest in human HeLa cells assessed as accumulation at G2/M phase at 100 nM after 24 hrs by propidium iodide staining based flow cytometry; assay type: functional

c1ccc(Nc2n[nH]c3c2Cc2ccccc2-3)cc1
IC50 (HeLa [1]): > 100 nM | IC50 (PC-3): > 100 nM | IC50 (HCT-116): > 100 nM | IC50 (HEK293): > 100 nM | Activity (HeLa [2]): inactive | Activity (HeLa [3]): inactive

COc1ccc2c(c1)Cc1c(Nc3cccc(O)c3)n[nH]c1-2
IC50 (HeLa [1]): 7.1 nM | IC50 (PC-3): 8.6 nM | IC50 (HCT-116): 10.9 nM | IC50 (HEK293): > 100 nM

COc1cccc(Nc2n[nH]c3c2Cc2cc(OC)ccc2-3)c1
IC50 (HeLa [1]): 2.8 nM | IC50 (PC-3): 4.7 nM | IC50 (HCT-116): 6.53 nM | IC50 (HEK293): 8.8 nM

CC(=O)O[C@H]1C(=O)[C@@]2(C)[C@H]([C@H](OC(=O)c3ccccc3)[C@]3(O)C[C@H](OC(=O)[C@H](O)[C@@H](NC(=O)c4ccccc4)c4ccccc4)C(C)=C1C3(C)C)[C@]1(OC(C)=O)CO[C@@H]1C[C@@H]2O
inhibition (Tubulin (Homo sapiens) [4]): inactive

COc1cc(Nc2n[nH]c3c2Cc2cc(OC)ccc2-3)cc(OC)c1
IC50 (HeLa [1]): 3.2 nM | IC50 (PC-3): 7 nM | IC50 (HCT-116): 7.4 nM | IC50 (HEK293): 4.6 nM

COc1ccc2c(c1)Cc1c(Nc3cccc(OCC(C)C)c3)n[nH]c1-2
IC50 (HeLa [1]): 19.9 nM | IC50 (PC-3): 50.5 nM | IC50 (HCT-116): 56.6 nM | IC50 (HEK293): 25.5 nM | inhibition (Tubulin (Homo sapiens) [5]): Active | inhibition (Tubulin (Homo sapiens) [6]): Active

COc1ccc2c(c1)Cc1c(Nc3cccc(C(=O)O)c3)n[nH]c1-2
IC50 (HeLa [1]): > 100 nM | IC50 (PC-3): > 100 nM | IC50 (HCT-116): > 100 nM | IC50 (HEK293): > 100 nM

COc1ccc2c(c1)Cc1c(Nc3ccc(OC)c(OC)c3)n[nH]c1-2
IC50 (HeLa [1]): > 100 nM | IC50 (PC-3): 90.9 nM | IC50 (HCT-116): 86.3 nM | IC50 (HEK293): > 100 nM

COc1ccc2c(c1)Cc1c(Nc3ccccc3O)n[nH]c1-2
IC50 (HeLa [1]): > 100 nM | IC50 (PC-3): > 100 nM | IC50 (HCT-116): > 100 nM | IC50 (HEK293): > 100 nM

COc1cccc(Nc2n[nH]c3c2Cc2ccccc2-3)c1
IC50 (HeLa [1]): > 100 nM | IC50 (PC-3): > 100 nM | IC50 (HCT-116): > 100 nM | IC50 (HEK293): > 100 nM | inhibition (Tubulin (Homo sapiens) [7]): inactive

COc1ccc2c(c1)Cc1c-2n[nH]c1Nc1ccccc1
IC50 (HeLa [1]): 8.9 nM | IC50 (PC-3): 35.6 nM | IC50 (HCT-116): 26.6 nM | IC50 (HEK293): 53.6 nM | inhibition (Tubulin (Homo sapiens) [7]): inactive | inhibition (Tubulin (Homo sapiens) [8]): inactive

COc1ccc(Nc2n[nH]c3c2Cc2cc(OC)ccc2-3)cc1
IC50 (HeLa [1]): > 100 nM | IC50 (PC-3): > 100 nM | IC50 (HCT-116): > 100 nM | IC50 (HEK293): > 100 nM

COc1ccc2c(c1)Cc1c(Nc3ccccc3OC)n[nH]c1-2
IC50 (HeLa [1]): 32 nM | IC50 (PC-3): > 100 nM | IC50 (HCT-116): 86.2 nM | IC50 (HEK293): > 100 nM

CCOc1ccc2c(c1)Cc1c(Nc3ccccc3)n[nH]c1-2
IC50 (HeLa [1]): 20.4 nM | IC50 (PC-3): 60.2 nM | IC50 (HCT-116): 56.8 nM | IC50 (HEK293): 55.6 nM

Oc1ccc2c(c1)Cc1c(Nc3ccccc3)n[nH]c1-2
IC50 (HeLa [1]): > 100 nM | IC50 (PC-3): > 100 nM | IC50 (HCT-116): > 100 nM | IC50 (HEK293): > 100 nM

COC(=O)c1cccc(Nc2n[nH]c3c2Cc2cc(OC)ccc2-3)c1
IC50 (HeLa [1]): 2.47 nM | IC50 (PC-3): 2.64 nM | IC50 (HCT-116): 2.7 nM | IC50 (HEK293): 2.2 nM | Activity (Staphylococcus aureus): inactive | Activity (Escherichia coli): inactive | Activity (Candida albicans): inactive | Activity (Aspergillus fumigatus): inactive | Activity (Pyricularia oryzae): inactive | Activity (Plasmodium falciparum): inactive | inhibition [9]: > 82% | inhibition [10]: > 82% | inhibition [11]: > 82% | inhibition [12]: inactive | inhibition [13]: inactive | inhibition [14]: inactive | inhibition [15]: inactive | inhibition [16]: inactive | inhibition [17]: inactive | inhibition (Tubulin (Sus scrofa)): Dose-dependent effect | Activity (HeLa [2]): Active | inhibition (Tubulin (Homo sapiens) [18]): Active | inhibition (Tubulin (Homo sapiens) [19]): Active

COc1cc2c(c(OC)c1OC)-c1ccc(OC)c(=O)cc1[C@@H](NC(C)=O)CC2
Activity (HeLa [20]): Active
